Test results taken from PMC7442682 (Chemical biology & drug design, 2020).

Assays:
D1 receptor = D1 receptor (Homo sapiens, UniProt P21728); experiment: PDSP radioligand binding, dopamine D1 receptor
D2 receptor = D2 receptor (Homo sapiens, UniProt P14416); experiment: PDSP radioligand binding, dopamine D2 receptor
D3 receptor = D3 receptor (Homo sapiens, UniProt P35462); experiment: PDSP radioligand binding, dopamine D3 receptor
D4 receptor = biological target: T1, D4 receptor (Homo sapiens, UniProt P21917); experiment: PDSP radioligand binding, dopamine D4 receptor; details: read-out: Ki D4
T1 sequence (P21917 1-419): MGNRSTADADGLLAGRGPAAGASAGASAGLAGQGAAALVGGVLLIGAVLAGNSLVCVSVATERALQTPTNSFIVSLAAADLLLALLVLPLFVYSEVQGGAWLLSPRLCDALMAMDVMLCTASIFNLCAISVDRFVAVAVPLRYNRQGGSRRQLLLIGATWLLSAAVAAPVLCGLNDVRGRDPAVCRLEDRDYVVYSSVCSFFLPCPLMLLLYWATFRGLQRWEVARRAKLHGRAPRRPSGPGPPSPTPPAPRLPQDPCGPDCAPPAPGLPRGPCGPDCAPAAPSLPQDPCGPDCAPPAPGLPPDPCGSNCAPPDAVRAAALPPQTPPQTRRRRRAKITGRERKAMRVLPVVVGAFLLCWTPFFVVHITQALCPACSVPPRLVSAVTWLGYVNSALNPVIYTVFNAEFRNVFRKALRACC

D5 receptor = D5 receptor (Homo sapiens, UniProt P21918); experiment: PDSP radioligand binding, dopamine D5 receptor; details: read-out: Ki D5
Sequence of D5 receptor (P21918 whole entry): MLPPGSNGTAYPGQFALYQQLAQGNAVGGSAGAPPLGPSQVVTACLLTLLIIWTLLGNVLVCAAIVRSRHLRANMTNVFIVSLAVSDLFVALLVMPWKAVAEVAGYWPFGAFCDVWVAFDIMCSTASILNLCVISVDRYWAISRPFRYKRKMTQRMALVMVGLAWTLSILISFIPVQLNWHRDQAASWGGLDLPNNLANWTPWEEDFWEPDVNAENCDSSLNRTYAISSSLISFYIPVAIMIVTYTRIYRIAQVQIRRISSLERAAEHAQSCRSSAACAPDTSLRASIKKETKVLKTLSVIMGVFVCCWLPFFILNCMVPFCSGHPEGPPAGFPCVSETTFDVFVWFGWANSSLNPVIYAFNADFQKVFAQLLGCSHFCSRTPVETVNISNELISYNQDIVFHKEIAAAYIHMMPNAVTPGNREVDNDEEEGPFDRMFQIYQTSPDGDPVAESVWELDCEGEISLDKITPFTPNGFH

5-HT1A receptor = biological target: T2, 5-HT1A receptor (Homo sapiens, UniProt P08908); experiment: PDSP radioligand binding, 5-HT1A receptor
T2 sequence (P08908 1-422): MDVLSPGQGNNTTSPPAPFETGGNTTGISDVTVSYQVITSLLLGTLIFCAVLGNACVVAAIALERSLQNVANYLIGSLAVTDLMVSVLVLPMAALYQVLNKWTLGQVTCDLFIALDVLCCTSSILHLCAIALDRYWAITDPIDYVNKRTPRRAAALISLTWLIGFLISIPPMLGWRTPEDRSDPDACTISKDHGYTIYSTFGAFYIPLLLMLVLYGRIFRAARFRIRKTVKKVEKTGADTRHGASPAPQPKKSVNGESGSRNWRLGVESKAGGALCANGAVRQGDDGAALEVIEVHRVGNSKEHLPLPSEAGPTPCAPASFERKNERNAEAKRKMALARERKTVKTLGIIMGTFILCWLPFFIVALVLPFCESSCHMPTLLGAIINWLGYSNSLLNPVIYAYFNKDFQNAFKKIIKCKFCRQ

5-HT1B receptor = 5-HT1B receptor (Homo sapiens, UniProt P28222); experiment: PDSP radioligand binding, 5-HT1B receptor
Sequence of 5-HT1B receptor (P28222 whole entry): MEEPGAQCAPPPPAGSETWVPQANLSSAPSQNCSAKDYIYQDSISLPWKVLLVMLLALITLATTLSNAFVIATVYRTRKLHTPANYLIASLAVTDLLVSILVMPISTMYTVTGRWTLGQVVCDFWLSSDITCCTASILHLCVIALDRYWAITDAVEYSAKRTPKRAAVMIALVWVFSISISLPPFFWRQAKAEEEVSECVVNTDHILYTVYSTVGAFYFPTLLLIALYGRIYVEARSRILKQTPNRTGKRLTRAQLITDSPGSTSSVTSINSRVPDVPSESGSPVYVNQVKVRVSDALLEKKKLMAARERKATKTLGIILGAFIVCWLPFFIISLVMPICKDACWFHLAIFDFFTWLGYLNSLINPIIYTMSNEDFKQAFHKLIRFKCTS

5-HT2A receptor = 5-HT2A receptor (Homo sapiens, UniProt P28223); experiment: PDSP radioligand binding, 5-HT2A receptor
Sequence of 5-HT2A receptor (P28223 whole entry): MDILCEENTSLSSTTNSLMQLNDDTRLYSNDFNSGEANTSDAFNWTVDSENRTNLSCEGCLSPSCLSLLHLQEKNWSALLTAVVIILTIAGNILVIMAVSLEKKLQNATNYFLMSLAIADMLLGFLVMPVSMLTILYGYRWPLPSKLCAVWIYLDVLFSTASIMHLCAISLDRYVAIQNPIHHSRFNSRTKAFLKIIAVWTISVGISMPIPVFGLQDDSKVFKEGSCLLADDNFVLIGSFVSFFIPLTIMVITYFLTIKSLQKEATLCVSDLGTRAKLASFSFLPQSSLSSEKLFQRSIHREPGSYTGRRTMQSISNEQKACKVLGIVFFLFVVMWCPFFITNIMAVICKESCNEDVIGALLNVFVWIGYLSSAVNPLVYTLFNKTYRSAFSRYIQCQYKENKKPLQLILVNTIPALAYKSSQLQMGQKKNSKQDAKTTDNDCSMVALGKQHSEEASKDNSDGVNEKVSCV

5-HT5A receptor = 5-HT5A receptor (Homo sapiens, UniProt P47898); experiment: PDSP radioligand binding, 5-HT5A receptor
Sequence of 5-HT5A receptor (P47898 whole entry): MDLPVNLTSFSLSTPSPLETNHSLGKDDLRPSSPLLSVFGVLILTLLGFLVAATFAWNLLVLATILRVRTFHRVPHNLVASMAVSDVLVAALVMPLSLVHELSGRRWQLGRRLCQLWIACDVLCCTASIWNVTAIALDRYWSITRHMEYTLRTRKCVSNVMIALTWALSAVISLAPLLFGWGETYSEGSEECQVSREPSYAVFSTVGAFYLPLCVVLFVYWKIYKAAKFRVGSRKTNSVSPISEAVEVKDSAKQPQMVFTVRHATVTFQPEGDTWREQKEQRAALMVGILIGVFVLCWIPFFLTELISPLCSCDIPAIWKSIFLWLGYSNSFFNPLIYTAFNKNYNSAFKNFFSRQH

5-HT6 receptor = 5-HT6 receptor (Homo sapiens, UniProt P50406); experiment: PDSP radioligand binding, 5-HT6 receptor; details: for 5-HT6 selectivity versus the other receptors tested: versus all other dopamine, serotonin and adrenergic receptors tested
Sequence of 5-HT6 receptor (P50406 whole entry): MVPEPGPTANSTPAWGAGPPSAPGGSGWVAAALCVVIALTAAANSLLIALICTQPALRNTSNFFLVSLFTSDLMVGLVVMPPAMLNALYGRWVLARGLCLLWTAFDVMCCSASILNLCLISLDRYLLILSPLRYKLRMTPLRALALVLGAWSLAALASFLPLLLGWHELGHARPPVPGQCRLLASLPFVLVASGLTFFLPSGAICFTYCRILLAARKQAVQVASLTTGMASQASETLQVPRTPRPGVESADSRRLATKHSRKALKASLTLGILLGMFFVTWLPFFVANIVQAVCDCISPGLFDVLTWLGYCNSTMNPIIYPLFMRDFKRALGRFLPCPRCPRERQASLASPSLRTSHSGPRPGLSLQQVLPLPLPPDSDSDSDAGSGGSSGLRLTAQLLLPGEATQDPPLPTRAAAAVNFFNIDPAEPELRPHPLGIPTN

α1A adrenergic receptor = biological target: T3, α1A adrenergic receptor (Homo sapiens, UniProt P35348); experiment: PDSP radioligand binding, α1A adrenergic receptor
T3 sequence (P35348 1-466): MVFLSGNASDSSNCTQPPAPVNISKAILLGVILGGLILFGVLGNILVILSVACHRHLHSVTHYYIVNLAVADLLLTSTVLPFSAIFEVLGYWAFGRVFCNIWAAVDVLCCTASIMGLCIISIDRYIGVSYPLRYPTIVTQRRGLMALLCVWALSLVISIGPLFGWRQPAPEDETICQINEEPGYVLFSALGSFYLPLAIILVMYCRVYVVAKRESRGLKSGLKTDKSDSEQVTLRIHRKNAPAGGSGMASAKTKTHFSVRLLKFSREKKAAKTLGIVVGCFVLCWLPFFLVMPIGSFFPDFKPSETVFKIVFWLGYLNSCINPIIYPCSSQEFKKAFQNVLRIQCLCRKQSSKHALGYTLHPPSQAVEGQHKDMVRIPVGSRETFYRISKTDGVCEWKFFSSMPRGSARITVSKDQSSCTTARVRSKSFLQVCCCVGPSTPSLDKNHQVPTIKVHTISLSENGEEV

α1B adrenergic receptor = biological target: T4, α1B adrenergic receptor (Homo sapiens, UniProt P35368); experiment: PDSP radioligand binding, α1B adrenergic receptor; details: for inhibition at 10 µM: read-out: Ki α1B
T4 sequence (P35368 1-520): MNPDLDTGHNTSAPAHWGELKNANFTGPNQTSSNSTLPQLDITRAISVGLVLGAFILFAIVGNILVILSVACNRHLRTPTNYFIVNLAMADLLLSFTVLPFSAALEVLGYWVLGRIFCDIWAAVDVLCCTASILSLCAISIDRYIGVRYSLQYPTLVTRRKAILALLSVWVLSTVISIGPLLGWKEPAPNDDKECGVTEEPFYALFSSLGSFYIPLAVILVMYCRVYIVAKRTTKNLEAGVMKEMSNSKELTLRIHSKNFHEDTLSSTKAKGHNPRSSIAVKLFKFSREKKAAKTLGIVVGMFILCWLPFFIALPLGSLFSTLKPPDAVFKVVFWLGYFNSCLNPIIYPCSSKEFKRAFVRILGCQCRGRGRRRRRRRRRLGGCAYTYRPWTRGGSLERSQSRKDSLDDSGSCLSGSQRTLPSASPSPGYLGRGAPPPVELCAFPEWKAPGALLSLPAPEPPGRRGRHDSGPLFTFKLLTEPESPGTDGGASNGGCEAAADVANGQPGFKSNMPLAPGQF

α2A adrenergic receptor = biological target: T5, α2A adrenergic receptor (Homo sapiens, UniProt P08913); experiment: PDSP radioligand binding, α2A adrenergic receptor
T5 sequence (P08913 1-465): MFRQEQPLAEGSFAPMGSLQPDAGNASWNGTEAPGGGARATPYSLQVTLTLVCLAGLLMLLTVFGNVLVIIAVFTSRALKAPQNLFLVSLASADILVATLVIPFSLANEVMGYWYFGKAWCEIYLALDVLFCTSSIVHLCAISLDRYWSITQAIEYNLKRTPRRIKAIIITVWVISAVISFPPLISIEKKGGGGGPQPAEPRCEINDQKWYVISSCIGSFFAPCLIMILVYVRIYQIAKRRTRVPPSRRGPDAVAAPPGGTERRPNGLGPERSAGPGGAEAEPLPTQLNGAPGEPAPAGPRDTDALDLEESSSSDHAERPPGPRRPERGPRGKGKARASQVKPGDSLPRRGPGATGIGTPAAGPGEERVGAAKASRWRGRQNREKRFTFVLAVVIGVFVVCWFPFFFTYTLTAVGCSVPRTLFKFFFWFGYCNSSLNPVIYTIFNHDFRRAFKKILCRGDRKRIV

α2B adrenergic receptor = biological target: T6, α2B adrenergic receptor (Homo sapiens, UniProt P18089); experiment: PDSP radioligand binding, α2B adrenergic receptor
T6 sequence (P18089 1-450): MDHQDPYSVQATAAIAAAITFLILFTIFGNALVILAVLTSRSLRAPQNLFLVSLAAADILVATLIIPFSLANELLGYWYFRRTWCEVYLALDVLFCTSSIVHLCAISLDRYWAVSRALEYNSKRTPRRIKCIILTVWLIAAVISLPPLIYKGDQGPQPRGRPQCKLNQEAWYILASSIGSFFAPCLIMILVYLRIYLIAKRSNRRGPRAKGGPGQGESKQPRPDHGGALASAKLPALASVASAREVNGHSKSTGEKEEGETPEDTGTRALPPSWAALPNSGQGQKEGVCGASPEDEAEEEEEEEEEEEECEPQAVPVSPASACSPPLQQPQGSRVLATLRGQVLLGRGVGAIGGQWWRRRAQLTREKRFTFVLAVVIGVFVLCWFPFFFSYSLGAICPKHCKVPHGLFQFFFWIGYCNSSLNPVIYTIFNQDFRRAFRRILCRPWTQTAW

α2C adrenergic receptor = biological target: T7, α2C adrenergic receptor (Homo sapiens, UniProt P18825); experiment: PDSP radioligand binding, α2C adrenergic receptor
T7 sequence (P18825 1-462): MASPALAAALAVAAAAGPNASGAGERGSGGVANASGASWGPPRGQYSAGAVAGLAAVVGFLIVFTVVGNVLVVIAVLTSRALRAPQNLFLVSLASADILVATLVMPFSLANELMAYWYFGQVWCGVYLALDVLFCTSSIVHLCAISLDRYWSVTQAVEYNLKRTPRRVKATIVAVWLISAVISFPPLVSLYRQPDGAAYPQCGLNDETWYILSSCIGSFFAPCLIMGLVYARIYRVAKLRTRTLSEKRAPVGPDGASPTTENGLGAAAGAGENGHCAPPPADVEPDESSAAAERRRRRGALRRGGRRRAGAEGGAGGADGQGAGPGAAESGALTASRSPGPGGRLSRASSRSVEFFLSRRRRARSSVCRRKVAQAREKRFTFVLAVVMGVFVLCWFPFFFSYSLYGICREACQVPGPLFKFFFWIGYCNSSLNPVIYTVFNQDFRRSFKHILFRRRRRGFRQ

Sequence of D3 receptor (P35462 whole entry): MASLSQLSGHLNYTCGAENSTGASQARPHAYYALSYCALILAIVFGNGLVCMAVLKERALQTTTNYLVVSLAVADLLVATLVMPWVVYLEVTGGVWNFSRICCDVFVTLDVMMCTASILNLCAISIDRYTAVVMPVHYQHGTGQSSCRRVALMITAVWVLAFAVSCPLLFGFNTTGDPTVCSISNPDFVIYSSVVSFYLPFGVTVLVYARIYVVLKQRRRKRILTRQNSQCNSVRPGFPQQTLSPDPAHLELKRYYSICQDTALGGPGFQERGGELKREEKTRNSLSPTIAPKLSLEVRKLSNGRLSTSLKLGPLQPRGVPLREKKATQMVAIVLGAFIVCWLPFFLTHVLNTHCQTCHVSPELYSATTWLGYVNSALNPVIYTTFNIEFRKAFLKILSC
Sequence of D1 receptor (P21728 whole entry): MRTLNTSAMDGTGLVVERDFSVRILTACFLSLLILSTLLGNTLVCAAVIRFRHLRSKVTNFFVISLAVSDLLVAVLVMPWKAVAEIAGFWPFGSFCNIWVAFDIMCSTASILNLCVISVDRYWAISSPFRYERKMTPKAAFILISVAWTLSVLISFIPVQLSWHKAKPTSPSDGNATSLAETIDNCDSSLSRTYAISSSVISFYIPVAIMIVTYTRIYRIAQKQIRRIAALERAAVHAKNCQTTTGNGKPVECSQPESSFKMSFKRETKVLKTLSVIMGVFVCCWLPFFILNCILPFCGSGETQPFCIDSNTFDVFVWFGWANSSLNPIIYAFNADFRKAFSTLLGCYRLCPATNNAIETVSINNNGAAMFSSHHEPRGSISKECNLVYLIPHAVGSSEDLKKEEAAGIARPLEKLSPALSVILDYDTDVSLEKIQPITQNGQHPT
Sequence of D2 receptor (P14416 whole entry): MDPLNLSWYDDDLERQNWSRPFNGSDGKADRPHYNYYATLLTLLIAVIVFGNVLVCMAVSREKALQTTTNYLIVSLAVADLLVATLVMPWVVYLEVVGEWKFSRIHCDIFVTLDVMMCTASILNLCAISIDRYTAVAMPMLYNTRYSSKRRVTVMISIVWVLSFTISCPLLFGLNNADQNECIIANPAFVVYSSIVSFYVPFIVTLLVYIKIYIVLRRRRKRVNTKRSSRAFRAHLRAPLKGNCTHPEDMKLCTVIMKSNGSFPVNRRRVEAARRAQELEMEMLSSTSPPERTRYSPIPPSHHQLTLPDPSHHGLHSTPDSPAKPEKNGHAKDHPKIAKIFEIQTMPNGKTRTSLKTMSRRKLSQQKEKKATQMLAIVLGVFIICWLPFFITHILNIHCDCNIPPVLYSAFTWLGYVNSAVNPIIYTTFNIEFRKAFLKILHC

## COc1cc2c3c(c1OC)-c1ccccc1C3CNCC2 (stereo not shown) [Compound 10, 6,7-dimethoxy-2,3,4,11b-tetrahydro-1H-fluoreno[9,1-cd]azepine]
D1 receptor; read-out: Ki D1
  inhibition at 10 µM: < 10%
D2 receptor
  Ki: 780 nM
D3 receptor
  Ki: 415 nM
D4 receptor
  inhibition at 10 µM: < 10%
D5 receptor
  inhibition at 10 µM: < 10%
5-HT1A receptor
  Ki: 110 nM
5-HT1B receptor
  Ki: 255 nM
5-HT2A receptor
  Ki: 1680 nM
5-HT5A receptor
  Ki: 578 nM
5-HT6 receptor
  Ki: 5 nM
  5-HT6 selectivity versus the other receptors tested: at least 15 fold
α1A adrenergic receptor
  Ki: 545 nM
α1B adrenergic receptor
  Ki: 2590 nM
α2A adrenergic receptor
  Ki: 1600 nM
α2B adrenergic receptor
  Ki: 1120 nM
α2C adrenergic receptor
  Ki: 774 nM

## Oc1cc2c3c(c1O)-c1ccccc1C3CNCC2 (stereo not shown) [Compound 11, 2,3,4,11b-tetrahydro-1H-fluoreno[9,1-cd]azepine-6,7-diol]
D1 receptor
  Ki: 8820 nM
D3 receptor
  Ki: 2920 nM
D4 receptor
  inhibition at 10 µM: < 10%
D5 receptor
  inhibition at 10 µM: < 10%
5-HT1A receptor
  Ki: 151 nM
5-HT1B receptor
  Ki: 451 nM
5-HT2A receptor
  Ki: 1560 nM
5-HT5A receptor
  Ki: 244 nM
5-HT6 receptor
  Ki: 38 nM
α1A adrenergic receptor
  Ki: 3200 nM
α1B adrenergic receptor
  inhibition at 10 µM: < 10%
α2A adrenergic receptor
  Ki: 2590 nM
α2B adrenergic receptor
  Ki: 2200 nM
α2C adrenergic receptor
  Ki: 1110 nM

## COc1cc2c3c(c1OC)-c1ccccc1C3CN(C)CC2 (stereo not shown) [Compound 12, 6,7-dimethoxy-2-methyl-2,3,4,11b-tetrahydro-1H-fluoreno[9,1-cd]azepine]
D1 receptor
  Ki: 2460 nM
D2 receptor
  Ki: 636 nM
D3 receptor
  Ki: 79 nM
D4 receptor
  inhibition at 10 µM: < 10%
D5 receptor
  inhibition at 10 µM: < 10%
5-HT1A receptor; read-out: Ki 5-HT1A
  inhibition at 10 µM: < 10%
5-HT1B receptor; read-out: Ki 5-HT1B
  inhibition at 10 µM: < 10%
5-HT2A receptor
  Ki: 811 nM
5-HT5A receptor
  Ki: 286 nM
5-HT6 receptor
  Ki: 5 nM
  5-HT6 selectivity versus the other receptors tested: at least 15 fold
α1A adrenergic receptor
  Ki: 2860 nM
α1B adrenergic receptor
  Ki: 5870 nM
α2A adrenergic receptor
  Ki: 1170 nM
α2B adrenergic receptor; read-out: Ki α2B
  inhibition at 10 µM: < 10%
α2C adrenergic receptor
  Ki: 472 nM

## CN1CCc2cc(O)c(O)c3c2C(C1)c1ccccc1-3 (stereo not shown) [Compound 13, 2-methyl-2,3,4,11b-tetrahydro-1H-fluoreno[9,1-cd]azepine-6,7-diol]
D1 receptor
  Ki: 865 nM
D2 receptor; read-out: Ki D2
  inhibition at 10 µM: < 10%
D3 receptor; read-out: Ki D3
  inhibition at 10 µM: < 10%
D4 receptor
  inhibition at 10 µM: < 10%
D5 receptor
  inhibition at 10 µM: < 10%
5-HT1A receptor
  Ki: 393 nM
5-HT1B receptor
  Ki: 1030 nM
5-HT2A receptor
  Ki: 352 nM
5-HT5A receptor
  Ki: 363 nM
5-HT6 receptor
  Ki: 123 nM
α1A adrenergic receptor
  Ki: > 10000 nM
α1B adrenergic receptor
  inhibition at 10 µM: < 10%
α2A adrenergic receptor; read-out: Ki α2A
  inhibition at 10 µM: < 10%
α2B adrenergic receptor
  Ki: 5820 nM
α2C adrenergic receptor
  Ki: 1960 nM
